# Experimental data taken from patent publication US4277496A, “Methods of treating mammals suffering from inflammation and pain” (Laboratorios Bago S.A., priority 1980, dated 1981).
# How the values were obtained:
# gastric epithelium = assay: Influence on the gastro-intestinal tract (ulceration, pylorus-ligated, method of Shay et al.); assay type: in vivo, rat (male Sprague Dawley); settings: oral, dose mg/kg: phenylbutazone 75, ASA 100, XAA 120, XAA ester 196, TAA 60, TAA ester 84.5; for Increase (of ulceration evaluation): increase over control (distilled water, 3.0), 1 hour; for Evaluation (ulceration of the gastric epithelium): 1 hour after administration, score 0=no hemorrhage sites to 6=perforated ulcer, control 3.0
# Procedure: Influence on the gastro-intestinal tract
# Ten male rats of Sprague Dawley strain, weighing 200-300 g were used for each compound tested. According to the method of Shay et al. (Shay, H., Komapov, S. A., Feb. S. S., Meranir, D., Gruenstein, M., Siplet, H. Gastroenterology 5, 43, 1945), under anesthesia, the pylorus was ligated and 4 hours later test compounds were orally administered. The animal was sacrificed 1 hour after compound administration. The stomach was removed and examined for macroscopic damage. The ulceration of the gastric epithelium was evaluated by the following evaluation: 0=no hemorrhage sites; 1=some isolated hemorrhagic sites; 2=redness of the gastric epithelium; 3=1 to 5 small ulcers with a diameter smaller than 3 mm; 4=many small ulcers; 5=ulcers-greater than 3 mm; 6=perforated ulcer.
# [1] = test system: pain threshold for the inflamed feet (carrageenin); assay: Analgesic Activity: Randall-Selitto's method; assay type: in vivo, mouse (male Rockland); settings: oral, 30 min before carrageenin; hourly for 3 hours; relative potency (control 0); dose mg/kg: ASA 100, XAA 50, XAA ester 74 (eq. 50 XAA), TAA 50, TAA ester 82 (eq. 50 TAA)
# Procedure: Randall-Selitto's method: Ten male mice of Rockland strain weighing 25 g were used for each compound tested. 0.1 ml of 1% carrageenin saline suspension was injected into the subplantar region of the right foot. The test compounds were orally administered 30 minutes before the injection. At hourly intervals for 3 hours after the carrageenin injection, the pain threshold for the inflammed feet determining was measured the amount of pressure with an analgesy meter.
# [2] = test system: response threshold on applying pressure to the tail; assay: Analgesic Activity: Tail pressure test; assay type: in vivo, mouse (male Rockland); settings: oral; 15 and 60 min after administration; relative potency (control 0, ASA 1.00); dose mg/kg: ASA 100, XAA 50, XAA ester 74 (eq. 50 XAA), TAA 50, TAA ester 82 (eq. 50 TAA)
# Procedure: Tail pressure test: Ten male mice of Rockland strain weighing 20-25 g were used for each compound tested. The response threshold on applying pressure to the tail was determined with an analgesy meter at 15 and 60 minutes after oral administration of the test compound. The pressure at which a struggle was elicited was read.
# [3] = test system: Carrageenin induced edema; assay: Anti-inflammatory Activity (Carrageenin induced edema test); assay type: in vivo, rat (male Sprague Dawley); settings: for % Edema Inhibition, 1 hour / % Edema Inhibition, 3 hours / % Edema Inhibition, 5 hours: oral, 30 min before carrageenin, dose mg/kg: ASA 100, XAA 120, XAA ester 196 (eq. 120 XAA), TAA 60, TAA ester 84.5 (eq. 60 TAA); for % Edema Inhibition, 1 hour: 1 hour after carrageenin; for % Edema Inhibition, 3 hours: 3 hours after carrageenin; for % Edema Inhibition, 5 hours: 5 hours after carrageenin; for anti-inflammatory versus antinociceptive action: conclusion in words from Examples 6 and 7
# Procedure: Anti-inflammatory Activity (Carrageenin induced edema test)
# Fifteen to twenty male rats of Sprague Dawley strain weighing 150-200 g, were employed for each compound tested. 0.1 ml of 1% carrageenin saline suspension was injected into the subplantar region of the right hind-paw. The test compounds were orally administered 30 minutes prior to the injection of carrageenin and the foot volume was determined 1,3 and 5 hours after the injection of carrageenin. The percent swelling in the foot was obtained by comparing the volume before and after the injection of carrageenin, and the rate of inhibition in the treated animals was calculated.
SMILES,Increase (of ulceration evaluation) (gastric epithelium),Evaluation (ulceration of the gastric epithelium) (gastric epithelium),"Relative strength, Randall-Selitto test [1]","Relative strength, Tail pressure test [2]","% Edema Inhibition, 1 hour [3] [%]","% Edema Inhibition, 3 hours [3] [%]","% Edema Inhibition, 5 hours [3] [%]",anti-inflammatory versus antinociceptive action [3]
"CC(=O)Oc1ccccc1C(=O)O [Acetylsalicylic acid (ASA), Acetylsalicylic acid]",1.1,4.1,1.05,1.00,3.8,24.8,25.3,
CC(C)(C)C(=O)OCOC(=O)c1ccccc1Nc1cccc(C(F)(F)F)c1 [Pivaloyloxymethyl N(3'-trifluorotolyl)-anthranylate],0.6,3.6,8.7,1.02,40.4,40.7,32.4,act as anti-inflammatory agents more than as antinociceptive agents
O=C(O)c1ccccc1Nc1cccc(C(F)(F)F)c1 [N-(3'-trifluorotolyl)-anthranylic acid],1.9,4.9,5.3,0.5,24.3,29.3,28.3,
"Cc1cccc(Nc2ccccc2C(=O)O)c1C [N-(2',3'-xylyl) anthranylic acid (XAA), N-(2',3'-xylyl) anthranylic acid]",1.2,4.2,1.04,0.2,19.32,24.7,23.4,
"Cc1cccc(Nc2ccccc2C(=O)OCOC(=O)C(C)(C)C)c1C [Pivaloyloxymethyl N-(2',3'-xylyl)anthranylate]",0.4,3.4,1.74,0.48,33.3,36.4,31.3,act as anti-inflammatory agents more than as antinociceptive agents
CCCCC1C(=O)N(c2ccccc2)N(c2ccccc2)C1=O [Phenylbutazone],2.5,5.5,,,,,,
